Measured values taken from patent US4330557A, “Acyl-carnitine and use thereof in parenteral administration of triglycerides” (priority 1980, dated 1982).

Test: general statement on activity and toxicity of carnitine stereoisomers and acyl-carnitine

Row | SMILES | toxicity of carnitine isomer (D-isomer versus other isomer) | activity of carnitine isomer (L-isomer versus other isomer)
1 | C[N+](C)(C)C[C@@H](O)CC(=O)[O-] [D-carnitine] | slightly more toxic | –
2 | C[N+](C)(C)C[C@H](O)CC(=O)[O-] [L-carnitine] | – | more active
